Measurements taken from ChEMBL document CHEMBL4393652, “Development of Isoselenocyanate Compounds' Syntheses and Biological Applications” (2019).

Test system: UACC-903
Assay: Antitumor activity against human UACC-903 cells xenografted in Nude-Foxn1nu mouse assessed as reduction in tumor size after 24 hrs relative to control
Format: functional
Design: scale not given: the % may be the effect or the level left

[Se]=C=NCCCCc1ccccc1 [PHENYLBUTYL ISOSELENOCYANATE]
Activity: 77%
